# Tests used:
# [1] = ATR-FTIR spectroscopy of peptide assemblies; type: physicochemical; settings: 100 μM peptide (mix 50 μM each), incubated at 37 °C in PBS, 20 min to 6 days; hydrated film
# Protocol: The in vitro aggregation of Aβ samples was monitored by ThT assay (Fig. 6a–c). ThT fluorescence emission was recorded at different incubation times at 37 °C in physiological buffer. […] Further, we recorded the emission fluorescence spectra of the samples incubated for 96 h at 37 °C after tyrosine excitation at 270 nm, which is also able to produce ThT fluorescence. […] The secondary structures of the peptide assemblies were also investigated by Fourier transform infrared (FTIR) spectroscopy in attenuated total reflection (ATR) (Fig. 6d). […] During incubation at 37 °C of H-Aβ42, this component increased in intensity while that at ~1695 cm^−1 decreased (Fig. 6d). These spectral changes have been already observed in the fibrillogenesis of Aβ peptides and of other proteins, and assigned to the conformational conversion towards fibrillar structures with a parallel orientation of the intermolecular β-sheets. […]
# For the ATR-FTIR measurements, 2 μL of Aβ42 (at 100 μM concentration), of Aβ24 (at 100 μM concentration), or of the equimolar mixture of the two peptides (at 50 μM concentration each) were deposed on the single reflection diamond element of the ATR device (Quest, Specac, UK). Spectra were recorded after solvent evaporation to allow the formation of an hydrated film as previously described. […]
# wt mice brain = test: Intracranial injection in wt mice: amyloid aggregate deposition (6E10 DAB, Congo red, ThT staining); type: in vivo, mouse; settings: for ThT-positive aggregates in brain sections: 2.5 months after i.c. injection; for 6E10-positive aggregates in brain, 6 months after injection: i.c. injection of oligomeric peptide, 6E10 followed by HRP
# Protocol: Mice were anesthetized and perfused with 0.9 % saline, followed by 4 % PFA. The 30 μm cryosections of brain were blocked in PBS containing 10 % goat serum and 0.1 % Triton X-100 for 1 h at room temperature before being incubated overnight at 4 °C with primary antibodies. The following day, the slides were rinsed in PBS and incubated at room temperature for 1 h with secondary antibody. The slides were processed using the ABC detection kit (Vector Laboratories). […] Immunofluorescence and ThT staining were performed on brain sections. Brain slices were washed three times in PBS and incubated for 1 h at room temperature in blocking solution (3 % BSA). Subsequently, the slides were washed 3 times and incubated overnight with specific antibodies. The next day, sections were washed in PBS and incubated for 2 h at room temperature with specific fluorochrome-conjugated secondary antibodies diluted in 3 % BSA in the dark. ThT solution was prepared as described above. Final solution was added to free floating slides for 1 min and very quickly washed with 80 % methanol followed by 3 washes with distilled water. Images were acquired by Virtual Slides microscope (VS120, Olympus). For quantification, both diffuse-plaques and dense-core plaques were considered, as described in [92]. Small dots and deposits at the slice edge were not counted. The entire surface of the slice was examined. For congo red histological staining, slices were air-dried on glass overnight, then stained with a 0.2 % congo red solution according to [93]. Specimens were acquired by transmittance polarized light microscopy, FITCH filtered epifluorescence. For quantification, bright field images were analyzed by color segmentation plugin-ImageJ software (NIH, Bethesda, MD). The entire area of deposits was considered.
# TNF-alpha = TNF-alpha ELISA in serum and brain of intracranially injected wt mice; type: in vivo, mouse; settings: wt mice 2.5 months after i.c. injection
# Protocol: Stereotaxic intracranial injections in mice brains were made under a mixture of ketamine (100 mg/kg) and xylazine (10 mg/kg) anesthesia. After surgical exposure of dura mater, both the bregma and the skull surface served as the stereotaxic zero points. Using a Hamilton syringe, 4 μL of H-Aβ or vehicle (vehicle consists of physiological buffer−50 mM NaPi, 100 mM NaCl pH 7.4−) were injected into the neocortex (AP 1 mm, ML 2 mm, DV−2 mm) with a speed of 1.5 μL/min, the needle was kept in place for an additional minute before it was slowly drawn out. For each experiment 4 pmol of H-Aβ42, 4 pmol of H-Aβ24 and 2 pmol of H-Aβ42 plus 2 pmol of H-Aβ24 for the mix condition were injected, as described in [70, 90]. Different conditions were used for specific experiments as specified in the text. After suturing the incision, mice were maintained on a warm pad until recovery from the anesthesia, then returned to their cages.
# wt mice = test: Behavioral tests (open field, social interaction, novel object recognition) after intracranial injection; type: in vivo, mouse; settings: wt mice i.c. injected, compared with vehicle and age matched APP/PS1 mice
# Protocol: Mice were placed in a multi-unit open field maze (ViewPoint instruments) with field chamber (25 cm long and 25 cm wide), and activity was recorded using ViewPoint video tracking software. Each quadrant was digitally divided into a peripheral and a central region using ViewPoint video tracking software. The central quadrants are collectively referred to as the center zone and peripheral quadrants are collectively referred to as the peripheral zone. Data were collected continually for 30 min and the distance traveled (cm), velocity (cm/s), and the distance traveled in the center zone versus the peripheral zone were all recorded and scored automatically. In the open field task ambulatory movements (valued as distance traveled and movement speeds) and anxiety-like behaviors (as the as distance traveled in the center zone versus the peripheral zone) can be assessed in response to a novel environment.
# The social interaction test was used to measure how mice respond to a social partner during a 5-min test following isolation housing. Since isolation housing potentiates expression of innate territorial defensive responses, in this test we evaluated the reaction of mice to the presence of a new animal in free conditions in the same arena. […]
# The test apparatus consisted of an open field box measuring 50 cm × 25 cm and all sessions were video-recorded. […]
# murine Aβ = target: T1, murine Aβ (Mus musculus, UniProt P12023); test: Immunoblot of brain homogenate fractions with murine-Aβ-specific antibody m3.2; type: in vivo; settings: wt mice analyzed 4 months after i.c. injection; supernatant and pellet
# T1 construct: co-aggregation of the injected peptide and endogenously produced mouse Aβ42, retained in the brain; from tissue; host or cells: brain homogenate (supernatant and pellet fractions) of injected wild-type mice
# T1 sequence (P12023 672-713 limits assumed): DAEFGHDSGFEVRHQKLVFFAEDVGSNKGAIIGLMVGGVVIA
# Protocol: Animals were anesthetized and perfused with PBS before brains were removed, weighted and homogeneted in a mild hypotonic buffer (50 mM Tris pH 8, 150 mM NaCl, 5 mM EDTA supplemented with phosphatase and protease inhibitor, EDTA-free, Roche). Supernatants were then centrifuged for 1 h at 3000 × g to pellet insoluble material, including insoluble Aβ species. Samples were either frozen on dry ice or LDS sample buffer (Invitrogen) containg 5 % β-mercaptoethanol was immediately added. Pellets were directly resuspended in 20 μl of LDS sample buffer. 10 μl sample were loaded onto a Bolt 4–12 % Bis-Tris Plus Gels (Thermo Fisher) for Western Blot evaluation. Samples were separated using MES buffer and transferred onto a […] nitrocellulose membrane (Bio-Rad). Membranes were washed in TBS-Tween (150 mM NaCl, 50 mM Tris and 0.1 % (v/v) Tween-20) and incubated for 45 min at room temperature in blocking solution (5 % milk or 2.5 % serum bovine albumin in TBST). Membranes were subsequently probed overnight at 4 °C with primary antibodies diluted in TBS-T buffer. Membranes were washed extensively and incubated for 45 min at room temperature with horseradish peroxidase-conjugated (HRP) secondary antibody diluted in TBST buffer. Antibody-specific signals were detected using enhanced chemiluminescence reagents (Clarity Western ECL substrate, Bio-Rad).
# Protocol for bEnd.3 cells: (ATCC® CRL2299™) were used as a representative BBB model. bEnd.3 cells were cultured at 37 °C, 5 % CO2/saturated humidity in DMEM supplemented with 10 % heat-inactivated fetal bovine serum (FBS), 1 % penicillin-streptomycin.
# bEnd.3 cells were seeded at a concentration of 30000 cells/cm^2 onto geltrex-coated (thin layer; Gibco) transwell inserts (polycarbonate, 12 mm diameter, 3 μm pore size; Costar) until a monolayer was established.
# To assess Aβ42 exchange across the BBB model, bEnd.3 cells were cultured upside-down on a transwells system as described above, until steady-state TEER had been reached. […] The level of fluorescence in the media collected was measured for 488-Aβ42 (λex = 503 nm and λem = 528 nm) or for FAM-Aβ42 (λex = 492 nm and λem = 518 nm) using a Synergy™ H4 Hybrid Multi-Mode Microplate Reader (BioTek). Relative fluorescence units were converted to concentration according to prepared standard, and were corrected for background fluorescence. […] Briefly, Aβ42 volume cleared (ΔVc) was calculated using the equation ΔVc = Clower × Vlower/Cupper, where Cupper and Clower are fluorescently-labeled Aβ42 concentrations in the donor and receiving compartments, respectively, and Vlower is the volume on the basolateral side. […] Permeability coefficients (P) were calculated by dividing against the surface area of the filter (1.12 cm^2). […]
# Protocol for primary microglia: Primary microglia were obtained from mixed cultures prepared from the cerebral cortex of mice at the postnatal day 1 (P1-3). Microglia cells were isolated by shaking flasks for 45 min at 230 rpm at day 10 after plating. Cells were then seeded on poly-L-ornithine (Sigma) pre-coated wells at the density of 1,5×10^5 cell/mL in DMEM containing 20 % heat-inactivated fetal bovine serum (FBS) and incubated at 37 ° C in a humidified atmosphere of 5 % CO2 and 95 % air. Where indicated, cells were pre-treated for 45 min with protease inhibitors and EDTA 2.5 mM (Roche) which were directly added to the cell culture medium. […] When not differently indicated, for in vitro experiments microglia were treated with H-Aβ42 400 nM.
# Aliquots of supernatant samples (200 μL) were loaded on nitrocellulose membrane Trans-Blot Transfer Medium (0.22 μm, Bio-Rad), by vacuum deposition on the Bio-Dot SF blotting apparatus (Bio-Rad). Serial dilution curves of Aβ42 synthetic protein were preliminarily run to obtain non-saturating condition of immunodetection. DB dots images were analysed by Image Lab™ software (Bio-Rad).
# Aβ42 levels were determined using specific ELISA kit (Amyloid-beta (x-42) ELISA IBL, International) following manufacturer’s instructions. Briefly, 100 μL of sample was added into the pre-coated plate and was incubated overnight at 4 °C. After washing each well of the pre-coated plate, 100 μL of labeled antibody solution was added and the mixture was incubated for 1 h at 4 °C in the dark. After washing, chromogen was added and the mixture was incubated for 30 min at room temperature in the dark. After the addition of stop solution, the resulting color was assayed at 450 nm using a microplate absorbance reader (Synergy H4 Synergy™ H4 Microplate Reader, BioTek).
substance,measurement,setting,value
HiLyte Fluor™ 488-labeled Beta-Amyloid (1–42) [488-conjugated H-Aβ42],Internalization by microglia,"primary microglia; primary microglia, 1 μM, 3 h of treatment",efficiently internalized
Synthetic human Aβ1–42 [H-Aβ42],ATR-FTIR Amide I band (secondary structure of the assemblies),[1],higher intensity of the ~1628 cm^−1 peak
same,ThT-positive aggregates in brain sections,wt mice brain,only ThT-positive blood vessels
same,"6E10-positive aggregates in brain, 6 months after injection",wt mice brain; 4 pmol (mix 2 + 2 pmol),did not cause Aβ deposition
same,TNF-alpha levels in serum and brains,TNF-alpha,much less
same,"Behavioral phenotype (open field, sociality task, NOR)",wt mice,some behavioral alterations
same,"Extracellular Aβ42 in microglia medium, ELISA with capture antibody 6E10 (N-terminal), detection 4G8",primary microglia,lack of changes
same,"Extracellular Aβ42 in microglia medium, ELISA with capture antibody against the C-terminal domain",primary microglia,significant decrease
same,"Extracellular Aβ42 in microglia medium, dot blot with C-terminal anti-Aβ42",primary microglia,reduction of extracellular Aβ42
synthetic human Aβ1-24 peptide [H-Aβ24],ATR-FTIR Amide I band (secondary structure of the assemblies),[1],two main peaks at ~1695 cm^−1 and ~1628 cm^−1
same,ThT-positive aggregates in brain sections,wt mice brain,ThT-positive aggregates were detected
same,"6E10-positive aggregates in brain, 6 months after injection",wt mice brain; 4 pmol (mix 2 + 2 pmol),induced the formation of aggregates
same,"6E10-positive aggregates in brain, 2.5 months after injection","wt mice brain; i.c. injection, 4 pmol (mix 2 + 2 pmol)",already detectable
same,TNF-alpha levels in serum and brains,TNF-alpha,significant increase
same,"Behavioral phenotype (open field, sociality task, NOR)",wt mice,cognitive defects comparable to APP/PS1 mice
same,m3.2 positive bands (murine Aβ) in brain homogenate fractions,murine Aβ,presence of m3.2 positive bands
same,Effect of H-Aβ24 on the diffusion of fluorescently labeled scrambled H-Aβ42,bEnd.3 cells,No effect
same,"H-Aβ42 apical-to-basolateral passage when pre-incubated with H-Aβ24, dot blot",bEnd.3 cells,decreased amount of H-Aβ42

# From PMC5057504, “Amyloid-β 1–24 C-terminal truncated fragment promotes amyloid-β 1–42 aggregate formation in the healthy brain” (Acta Neuropathologica Communications, 2016)
